Assay results reported in paper PMC7391767, “Molecular mechanisms underlying menthol binding and activation of TRPM8 ion channel” (Nature Communications, 2020).
“And” between values parts separate entries of the source, which are not always exact repeats. Equal entries are not always repeated. “Also recorded” adds a separate entry of the source. Where two headings read alike, the source gives them in different places.

Columns and labels:
wild-type TRPM8 = target: T1, wild-type TRPM8 (Mus musculus, UniProt Q8R4D5); assay: whole-cell patch-clamp recording of ligand activation; format: cell-based
T1 construct: expressed in transfected cells; host or cells: HEK293T
How it was run: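 Transiently transfected cells expressing murine TRPM8, recorded 1–2 days post-transfection in whole-cell mode at ±80 mV, 22 °C, with 130 mM NaCl, 10 mM glucose, 0.2 mM EDTA, 3 mM HEPES (pH 7.2) in bath and pipette. Ligands applied by gravity perfusion. EC50 from Hill fit of concentration–response.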

TRPM8 I846V = target: T2, TRPM8 I846V (Mus musculus, UniProt Q8R4D5, I846V); assay: whole-cell patch-clamp and thermodynamic mutant cycle analysis; format: cell-based
T2 construct: expressed in transfected cells; host or cells: HEK293T

TRPM8 Y745H = target: T3, TRPM8 Y745H (Mus musculus, UniProt Q8R4D5, Y745H); assay: whole-cell patch-clamp recording of menthol activation; format: cell-based; details: Y745H mutation
T3 construct: expressed in transfected cells; host or cells: HEK293T
Procedure: Murine TRPM8 was used in this study. Point mutations were made by Fast Mutagenesis Kit V2 (SBS Genetech). Primers used to generate point mutations are summarized in Supplementary Table 2.
HEK293T cells purchased from Kunming Cell Bank, Kunming Institute of Zoology, Chinese Academy of Sciences (ATCC, CRL-3216) were cultured in Dulbecco’s modified Eagle’s medium supplemented with 20 mM L-glutamine and 10% fetal bovine serum. Cells were transiently transfected with cDNA constructs by Lipofectamine 3000 (Life Technologies) following the manufacturer’s protocol. Patch-clamp recordings were performed 1–2 days after transfection.
Patch-clamp recordings were performed with a HEKA EPC10 amplifier controlled by PatchMaster software (HEKA). Whole-cell recordings were performed at ±80 mV. Patch pipettes were prepared from borosilicate glass and fire-polished to resistance of ~4 MΩ. For whole-cell recording, serial resistance was compensated by 60%. For single-channel recordings, patch pipettes were fire-polished to a higher resistance of 6-to-10 MΩ and then recorded in the inside-out configuration. To maximize the chance of obtaining a patch with only one channel, single-channel recordings were performed about 8 h after transfection. A solution with 130 mM NaCl, 10 mM glucose, 0.2 mM EDTA, and 3 mM HEPES (pH 7.2) was used in both bath and pipette for either whole-cell or single-channel recordings. […]

[1] = test system: ANAP-incorporated TRPM8 mutants; assay: patch-clamp test of function of ANAP-incorporated TRPM8 mutants; format: cell-based, mouse; details: Menthol 1 mM
Procedure: L-ANAP methyl ester was purchased from AsisChem. pANAP vector was purchased from Addgene. ANAP was incorporated into TRPM8 by introducing a TAG amber stop codon mutation as previously reported. Briefly, after co-transfection of both TRPM8 and pANAP vectors, ANAP was directly added to the culture medium to the final concentration of 20 µM. After 1–2 days, ANAP-containing culture medium was completely changed. Cells were further cultured in ANAP-free medium overnight before experiments.
Patch-clamp recordings were performed with a HEKA EPC10 amplifier controlled by PatchMaster software (HEKA). Whole-cell recordings were performed at ±80 mV. Patch pipettes were prepared from borosilicate glass and fire-polished to resistance of ~4 MΩ. For whole-cell recording, serial resistance was compensated by 60%. For single-channel recordings, patch pipettes were fire-polished to a higher resistance of 6-to-10 MΩ and then recorded in the inside-out configuration. To maximize the chance of obtaining a patch with only one channel, single-channel recordings were performed about 8 h after transfection. A solution with 130 mM NaCl, 10 mM glucose, 0.2 mM EDTA, and 3 mM HEPES (pH 7.2) was used in both bath and pipette for either whole-cell or single-channel recordings. Membrane potential was clamped at +80 mV for single-channel recordings. Current was sampled at 10 kHz and filtered at 2.9 kHz. All recordings were performed at room temperature (22 °C) with the maximum variation of 1 °C.
Supplementary Table 1. ANAP- incorporated TRPM8 mutants. The function of these
ANAP- incorporated mutants was accessed by patch- clamp recordings. Menthol (1 mM)
was perfused to activate a mutant channel.

T1 sequence (Q8R4D5 whole entry): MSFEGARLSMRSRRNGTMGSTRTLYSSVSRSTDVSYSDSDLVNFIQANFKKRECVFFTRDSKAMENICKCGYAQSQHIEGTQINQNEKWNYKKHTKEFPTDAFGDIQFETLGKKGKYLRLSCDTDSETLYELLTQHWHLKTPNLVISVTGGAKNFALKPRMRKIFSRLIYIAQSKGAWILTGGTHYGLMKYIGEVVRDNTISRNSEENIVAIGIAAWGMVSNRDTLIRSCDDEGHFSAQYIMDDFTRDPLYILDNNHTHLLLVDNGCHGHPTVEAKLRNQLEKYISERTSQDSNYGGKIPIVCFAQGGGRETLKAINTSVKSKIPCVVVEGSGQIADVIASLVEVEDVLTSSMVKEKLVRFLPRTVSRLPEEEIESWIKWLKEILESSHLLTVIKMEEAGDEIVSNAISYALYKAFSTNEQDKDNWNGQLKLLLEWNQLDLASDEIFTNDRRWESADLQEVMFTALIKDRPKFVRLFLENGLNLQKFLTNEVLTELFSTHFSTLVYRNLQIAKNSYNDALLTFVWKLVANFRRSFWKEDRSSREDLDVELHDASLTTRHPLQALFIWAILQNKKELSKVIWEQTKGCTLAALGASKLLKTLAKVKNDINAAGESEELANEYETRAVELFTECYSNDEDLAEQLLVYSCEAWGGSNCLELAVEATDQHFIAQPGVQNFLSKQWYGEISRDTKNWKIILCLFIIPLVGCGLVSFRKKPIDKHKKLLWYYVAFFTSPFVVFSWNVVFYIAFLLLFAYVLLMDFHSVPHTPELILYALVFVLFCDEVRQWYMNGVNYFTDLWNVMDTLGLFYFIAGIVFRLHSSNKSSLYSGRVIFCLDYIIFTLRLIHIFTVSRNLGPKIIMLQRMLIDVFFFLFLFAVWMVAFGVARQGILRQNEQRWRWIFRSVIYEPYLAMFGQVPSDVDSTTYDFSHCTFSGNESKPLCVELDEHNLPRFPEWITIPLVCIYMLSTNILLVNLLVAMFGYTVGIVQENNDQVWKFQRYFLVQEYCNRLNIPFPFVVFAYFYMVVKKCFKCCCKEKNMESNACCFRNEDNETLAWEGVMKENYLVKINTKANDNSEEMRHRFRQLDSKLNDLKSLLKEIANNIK
T2 sequence (Q8R4D5 whole entry I846V): as the sequence (Q8R4D5 whole entry) above, with I846V counted along it
T3 sequence (Q8R4D5 whole entry Y745H): as the sequence (Q8R4D5 whole entry) above, with Y745H counted along it

CC(C)[C@@H]1CC[C@@H](C)C[C@H]1O [menthol, (−)-menthol]
L (equilibrium constant between closed and open states upon ligand binding), Ave (wild-type TRPM8; WT): 4.672 and 4.642 | concentration–response curve value, ave (wild-type TRPM8; WT, 1 microM): 0.025 and 0.02453 | concentration–response curve value, single recording (wild-type TRPM8; WT, 1 microM): 0.025 and 0.02453 | concentration–response curve value, ave (wild-type TRPM8; WT, 10 microM): 0.025 and 0.0249 | concentration–response curve value, single recording (wild-type TRPM8; WT, 10 microM): 0.021 and 0.029 and 0.02072 and 0.02909 | concentration–response curve value, ave (wild-type TRPM8; WT, 20 microM): 0.043 | concentration–response curve value, ave (wild-type TRPM8; WT, 30 microM): 0.090 and 0.08976 | concentration–response curve value, ave (wild-type TRPM8; WT, 100 microM): 0.426 and 0.4264 | concentration–response curve value, single recording (wild-type TRPM8; WT, 100 microM): 0.426 and 0.453 and 0.400 and 0.4256 and 0.4532 and 0.4003 | concentration–response curve value, ave (wild-type TRPM8; WT, 500 microM): 0.760 and 0.7604 | concentration–response curve value, single recording (wild-type TRPM8; WT, 500 microM): 0.796 and 0.730 and 0.755 and 0.7302 and 0.7548 | concentration–response curve value, ave (wild-type TRPM8; WT, 1000 microM): 0.801 and 0.8014 | concentration–response curve value, single recording (wild-type TRPM8; WT, 1000 microM): 0.847 and 0.769 and 0.788 and 0.8469 and 0.7692 and 0.7882 | Kd (wild-type TRPM8; WT, calculated from concentration–response curves (EC50 and Po max), read-out: Kd, Ave): 966 µM | Hill coefficient (wild-type TRPM8; wild-type TRPM8): 1.74 ± 0.06 | L (equilibrium constant between closed and open states upon ligand binding), Ave (TRPM8 I846V): 5.981 | concentration–response curve value, ave (TRPM8 I846V; 1 microM): 0.07755 | concentration–response curve value, ave (TRPM8 I846V; 20 microM): 0.2593 | concentration–response curve value, ave (TRPM8 I846V; 100 microM): 0.6986 | concentration–response curve value, ave (TRPM8 I846V; 500 microM): 0.7722 | concentration–response curve value, ave (TRPM8 I846V; 2000 microM): 0.7707 | concentration–response curve value, single recording (TRPM8 I846V; 2000 microM): 0.8798 and 0.8106 and 0.8028 and 0.882 and 0.5707 and 0.6784 | Kd (TRPM8 I846V; calculated from concentration–response curves, read-out: Kd, Ave): 120 µM | Kd (TRPM8 I846V; read-out: Kd, single recording): 88.3 µM and 109 µM and 97.6 µM and 116 µM and 189 µM | Menthol activation (TRPM8 Y745H): barely activated; also recorded: virtually abolished | Menthol activation ([1]; A875ANAP (S5)): YES | Menthol activation ([1]; D920ANAP (Between S5 and S6)): YES | Menthol activation ([1]; I962ANAP (S6)): YES | Menthol activation ([1]; L774ANAP (S2)): YES | Menthol activation ([1]; L817ANAP (S3)): YES | Menthol activation ([1]; L864ANAP (S5)): YES | Menthol activation ([1]; L939ANAP (Between S5 and S6)): YES | Menthol activation ([1]; N789ANAP (S2S3 linker)): YES | Menthol activation ([1]; N821ANAP (S3-S4 linker)): YES | Menthol activation ([1]; N852ANAP (S4)): YES | Menthol activation ([1]; N947ANAP (Between S5 and S6)): YES | Menthol activation ([1]; P734ANAP (S1)): YES | Menthol activation ([1]; P952ANAP (Between S5 and S6)): YES | Menthol activation ([1]; P958ANAP (Between S5 and S6)): YES | Menthol activation ([1]; S819ANAP (S3-S4 linker)): YES | Menthol activation ([1]; S820ANAP (S3-S4 linker)): YES | Menthol activation ([1]; S823ANAP (S3-S4 linker)): YES | Menthol activation ([1]; S824ANAP (S4)): YES | Menthol activation ([1]; S921ANAP (Between S5 and S6)): YES | Menthol activation ([1]; S966ANAP (S6)): YES | Menthol activation ([1]; T795ANAP (S2S3 linker)): YES | Menthol activation ([1]; V791ANAP (S2S3 linker)): YES | Menthol activation ([1]; V876ANAP (S5)): YES | Menthol activation ([1]; W954ANAP (Between S5 and S6)): YES | Menthol activation ([1]; Y787ANAP (S2)): YES | Menthol activation ([1]; Y808ANAP (S3)): YES
